Experiments:
[1] = test system: mouse hepatocellular cancer cell line Hep1-6 allograft; test: Tumor growth assay in allograft mouse model (Hep1-6), Ad-REIC with Cisplatin; type: in vivo, C57BL/6 mice; details: Ad-REIC 1.0×10^9 pfu intratumorally Days 14, 16, Cisplatin 1 mg/kg intraperitoneally Days 14, 21, control PBS
Excerpt: C57BL/6 female mice (6- to 8-week-old) were purchased from Japan SLC Inc. and maintained with free access to feeds and water in the SPF environment in Okayama University animal experimentation facility. Mice were adapted to the breeding environment over a period of 1 week or longer before the experimentation was initiated. Mice were bred and treated under the strictly controlled conditions in accordance with the guidelines provided by the institutional animal control committee, Okayama University Medical School.
The mouse hepatocellular cancer cell line Hep1-6 ([…], suspended in 200 μl of PBS) were injected into the right flanks of the C57BL/6 mice (Day 0). When the tumor diameters reached 5 to 10 mm, administration of Ad-REIC and Cisplatin was initiated. Ad-REIC (1.0×10^9 pfu) was administered intratumorally on Days 14 and 16. Cisplatin (1 mg/kg) was administered intraperitoneally on Days 14 and 21. Tumor sizes were measured 2 times a week, and tumor volumes were determined.

Huh7 cells = test: MTT cell viability assay, Huh7; type: cell-based; details: 72 hours
Method: (§1) The hepatic cancer cell lines Hep3B and Huh7 (hereafter, referred to as “Hep3B cells” and “Huh7 cells,” respectively, according to need) were purchased from the Japanese Cancer Resources Bank (Tokyo, Japan). The cells were maintained in Dulbecco's Modified Eagle's Medium supplemented with 10% FBS, 1% non-essential amino acid, 1% penicillin/streptomycin, and amphotericin B (0.5 μg/ml). The cells were cultured in accordance with a conventional technique in a humidified 5% CO2 incubator at 37° C. When the cells reached subconfluency, they were pretreated in a medium containing 0.1% dialyzed FBS for 24 hours before experimentation and then subjected to experimentation. […]
(§2) The hepatic cancer cell lines Hep3B and Huh7 were cultured in the presence or absence of Ad-LacZ or Ad-REIC for 72 hours. Cell viability was evaluated via MTT assays. […] Mitochondrial activity reflecting cell viability was evaluated by measuring the absorbance at 570 nm using a microplate reader. […]
(§3) Hep3B cells and Huh7 cells were cultured in the presence or absence of Cisplatin (1 μg/ml) for 72 hours and in the presence or absence of Ad-Lac Z (MOI of 50) or Ad-REIC (MOI of 50). Cell viability was evaluated by the MTT assays described above. […]

[2] = test system: JNK signal transmission pathway (p-ASK1, p-IRE1α, p-JNK, p-c-Jun) in Huh7 cells; test: Immunoblot analysis of the JNK signal transmission pathway; type: cell-based; details: Huh7, lysates 48 hours after transfection, regardless of the presence or absence of Ad-REIC (MOI of 10)
Method: The mechanism of Ad-REIC for apoptosis induction was examined. By performing immunoblotting, activation of signal transmission molecules in the JNK signal transmission pathway by Ad-REIC and Cisplatin was evaluated. Ad-LacZ and Ad-REIC at MOI of 10 each were transfected into the Hep3B cells and the Huh7 cells, and cell lysates were collected 48 hours thereafter. Protein expression of phospho-ASK1 (p-ASK1), phospho-IRE1α (p-IRE1α), phospho-JNK (p-JNK), and phospho-c-Jun (p-c-Jun) β-actin was analyzed via immunoblotting using specific antibodies. Immunoblotting of β-actin was performed to examine equal loading of proteins in the cells.

Hep3B cells = test: MTT cell viability assay, Hep3B; type: cell-based; details: 72 hours
Method: as §1, §2, §3

advanced hepatic cancer = details: clinical trials, advanced hepatic cancer (Non-Patent Document 1); cited from earlier work

SMILES | anti-tumor effects (tumor volume) [1] | cell viability of Huh7 cells, dependence on amount of Cisplatin (Huh7 cells) | expression of p-ASK1, p-IRE1α, p-JNK and p-c-Jun (immunoblotting) [2] | cell viability of Hep3B cells, dependence on amount of Cisplatin (Hep3B cells) | medial survival period (advanced hepatic cancer) [months]
N.N.[Cl][Pt][Cl] [Cisplatin] | the tumor volume was decreased, and anti-tumor effects were observed | decreased depending on the amount of Cisplatin administered | each such expression was activated | decreased depending on the amount of Cisplatin administered | –
CNC(=O)c1cc(Oc2ccc(NC(=O)Nc3ccc(Cl)c(C(F)(F)F)c3)cc2)ccn1 [Sorafenib] | – | – | – | – | 15.6
